Laboratory results from US7943639B2, “Compounds” (Proximagen Limited, priority 2002, dated 2011).
Where a name gives a salt, the structure may show the parent alone. Read-outs that look alike come from different tables or passages of the source.

Columns and labels:
human 5-HT6 receptor = molecular target: T1, human 5-HT6 receptor (Homo sapiens, UniProt P50406); test: 5-HT6 binding assay ([3H]-LSD, SPA, membranes of transfected HEK293 cells)
T1 construct: expressed in transfected cells; host or cells: HEK-293 cells under G-418 selection; membranes were prepared from them
T1 sequence (P50406 whole entry): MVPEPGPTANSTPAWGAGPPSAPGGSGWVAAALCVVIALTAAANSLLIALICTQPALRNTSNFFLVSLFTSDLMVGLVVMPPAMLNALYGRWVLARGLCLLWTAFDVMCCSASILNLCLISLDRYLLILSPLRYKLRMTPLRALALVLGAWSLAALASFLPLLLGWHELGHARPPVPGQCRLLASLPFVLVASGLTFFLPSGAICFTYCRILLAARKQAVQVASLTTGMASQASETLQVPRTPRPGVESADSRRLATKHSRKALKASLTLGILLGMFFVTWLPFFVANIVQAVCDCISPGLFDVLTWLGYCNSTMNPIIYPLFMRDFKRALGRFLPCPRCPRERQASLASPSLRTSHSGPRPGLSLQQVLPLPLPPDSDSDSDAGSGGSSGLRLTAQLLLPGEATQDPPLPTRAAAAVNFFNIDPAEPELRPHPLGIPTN

Ob/ob mice = test: In vivo assay of reduction of food intake; parameters: species or system mouse; conditions: infusion 50 mg/kg/d, measured at steady state
Method: (c) In Vivo Assay of Reduction of Food Intake
Obese (ob/ob) mouse is selected as the primary animal model for screening as this mutant mouse consumes high amounts of food resulting in a high signal to noise ratio. To further substantiate and compare efficacy data, the effect of the compounds on food consumption is also studied in wild type (C57BL/6J) mice. The amount of food consumed during 15 hours of infusion of compounds is recorded.
Male mice (obese C57BL/6JBom-Lep^ob and lean wild-type C57B1/6JBom; Bomholtsgaard, Denmark) 8-9 weeks with an average body weight of 50 g (obese) and 25 g (lean) are used in all the studies. The animals are housed singly in cages at 23±1° C., 40-60% humidity and have free access to water and standard laboratory chow. The 12/12-h light/dark cycle is set to lights off at 5 p.m. The animals are conditioned for at least one week before start of study.
The test compounds are dissolved in solvents suitable for each specific compound such as cyclodextrin, cyclodextrin/methane sulfonic acid, polyethylene glycol/methane sulfonic acid, saline. Fresh solutions are made for each study. Doses of 30, 50 and 100 mg kg^−1day^−1 are used. The purity of the test compounds is of analytical grade.
The animals are weighed at the start of the study and randomized based on body weight. Alzet osmotic minipumps (Model 2001D; infusion rate 8 μl/h) are used and loaded essentially as recommended by the Alzet technical information manual (Alza Scientific Products, 1997; Theeuwes, F. and Yam, S. I. Ann. Biomed. Eng. 4(4). 343-353, 1976). Continuous subcutaneous infusion with 24 hours duration is used. […]
The weight of the food pellets are measured at 5 p.m. and at 8 p.m. for two days before (baseline) and one day after the implantation of the osmotic minipumps. […]
Food consumption for 15 hours is measured for the three consecutive days and the percentage of basal level values is derived for each animal from the day before and after treatment. The values are expressed as mean±SD and ±SEM from eight animals per dose group. […]

[1] = Plasma drug concentration at steady state in the food intake study; type: in vivo; conditions: mouse, subcutaneous, 50 mg/kg/day, Ob/ob mice, single administration 50 mg/kg/d, read-out: Css, u
Method: The animals are weighed at the start of the study and randomized based on body weight. Alzet osmotic minipumps (Model 2001D; infusion rate 8 μl/h) are used and loaded essentially as recommended by the Alzet technical information manual (Alza Scientific Products, 1997; Theeuwes, F. and Yam, S. I. Ann. Biomed. Eng. 4(4). 343-353, 1976). Continuous subcutaneous infusion with 24 hours duration is used. The minipumps are either filled with different concentrations of test compounds dissolved in vehicle or with only vehicle solution and maintained in vehicle pre-warmed to 37° C. (approx. 1 h). The minipumps are implanted subcutaneously in the neck/back region under short acting anesthesia (metofane/enflurane). This surgical procedure lasts approximately 5 min. It takes about 3 h to reach steady state delivery of the compound.
The weight of the food pellets are measured at 5 p.m. and at 8 p.m. for two days before (baseline) and one day after the implantation of the osmotic minipumps. The weigh-in is performed with a computer assisted Mettler Toledo PR 5002 balance. Occasional spillage is corrected for. At the end of the study the animals are killed by neck dislocation and trunk blood sampled for later analysis of plasma drug concentrations.
The plasma sample proteins are precipitated with methanol, centrifuged and the supernatant is transferred to HPLC vials and injected into the liquid chromatography/mass spectrometric system. The mass spectrometer is set for electrospray positive ion mode and Multiple Reaction Monitoring. A linear regression analysis of the standards forced through the origin is used to calculate the concentrations of the unknown samples.

[2] = In vitro binding at the human 5-HT6 receptor, [3H]-LSD as labeled ligand, read-out: Ki (nM) human 5-HT6

Ki (human 5-HT6 receptor; [2])	concentration at 24 h [1]	Compound	% FI reduction (Ob/ob mice)	also measured
10 nM	440 nM	Cl.O=S(=O)(c1ccccc1)c1ccc2nccc(N3CCNCC3)c2c1 [Example 1, 6-benzenesulfonyl-4-piperazin-1-yl-quinoline hydrochloride]	12%	
		NCCc1c[nH]c2ccc(O)cc12 [Example 5-HT, 5-hydroxytryptamine, reference compound]		Hill coefficient (human 5-HT6 receptor; inter assay variability over three experiments): 0.94 (SD 0.09)
6.5 nM	20 nM	CC(C)(C)c1ccc(S(=O)(=O)c2ccc3nccc(N4CCNCC4)c3c2)cc1.Cl [Example 11, 6-[(4-tert-Butylphenyl)sulfonyl]-4-piperazin-1-ylquinoline hydrochloride]	47.1%	
10.5 nM		Cc1ccc(C)c(S(=O)(=O)c2ccc3ccnc(N4CCNCC4)c3c2)c1 [Example 20, 7-(2,5-Dimethyl-benzenesulfonyl)-1-piperazin-1-yl-isoquinoline hydrochloride]		
7.5 nM	200 nM	Cl.O=S(=O)(Nc1ccc(O[C@@H]2CCNC2)c2ccccc12)c1ccc(Cl)cc1 [Example 40, 4-Chloro-N-{4-[(3R)-pyrrolidin-3-yloxy]-1-naphthyl}benzenesulfonamide hydrochloride]	44%	
4.5 nM		CN1CCN(c2nccc3sc(S(=O)(=O)Nc4ccccc4)cc23)CC1 [Example 43, 4-(4-Methylpiperazin-1-yl)-N-phenylthieno[3,2-c]pyridine-2-sulfonamide hydrochloride]		
13 nM		O=S(=O)(NCCc1cccs1)c1cc2c(N3CCNCC3)nccc2s1 [Example 68, 4-Piperazin-1-yl-thieno[3,2-c]pyridine-2-sulfonic acid (2-thiophen-2-yl-ethyl)-amide hydrochloride]		
32 nM		O=S(=O)(c1cc2c(N3CCCNCC3)nccc2s1)c1cccc2ccccc12 [Example 85, 4-(1,4-Diazepan-1-yl)-2-[1-naphthylsulfonyl)thieno[3,2-c]pyridine hydrochloride]		
		O=S(=O)(c1ccccc1)n1ccc2c(N3CCNCC3)nccc21 [Example 131, 1-(Phenylsulfonyl)-4-piperazin-1-yl-1H-pyrrolo[3,2-c]pyridine hydrochloride]		Ki (human 5-HT6 receptor): 5 nM
		CN1C[C@@H](NS(=O)(=O)N(C)C)C[C@@H]2c3cccc4c3c(cn4C)C[C@H]21 [mesulergide, reference compound]		Ki (human 5-HT6 receptor; 3 nM [3H] LSD, 5-HT: over all average against two different membrane preparations, read-out: Ki value, inhibition of [3H] LSD binding (reference compounds, rank order of potency)): 1970 nM
